According to patent publication US20110178015A1, “METHODS OF TREATMENT USING BIASED LIGANDS FOR RECEPTORS SUCH AS THE PTH RECEPTOR” (priority 2007, published 2011):
Entries after “also recorded” stand apart in the source; their conditions may differ.

Experiments:
[1] = tested on: WT and β-arrestin 2−/− mice; experiment: Quantitative microCT of the lumbar spine (trabecular bone); format: in vivo; conditions: for percent increase in Tb bone density: vs vehicle, 8 weeks
Text: FIG. 4. β-arrestin 2 dependent signaling contributes to increases in trabecular bone but not cortical bone. Quantitative microCT of the lumbar spine was used to determine the effect vehicle, PTH (1-34) (PTH), or PTH-barr on (a) trabecular bone (Tb) density (BV/TV), (b) Tb thickness and (c) Tb number in WT and β-arrestin 2−/− mice after 8 wks of treatment. PTH and PTH-βarr increased tb density, tb thickness, and tb number in WT treated animals. The effects of PTH-βarr were absent in the β-arrestin −/− animals consistant with a b-arrestin mediated mechanism of anabolic bone formation. Data represent the mean±SEM of at least 7 independent mouse measurements. (***, P<0.001; **, P<0.01; *, P<0.05 compared with vehicle treated WT mice; if, P<0.01; t, P<0.05 compared with vehicle treated β-arrestin 2−/− mice).
Quantitative microCT (qCT) measurements of the lumbar spine were acquired from WT and β-arrestin 2−/− mice after 8 weeks of treatment with vehicle, PTH(1-34), or PTH-βarr. There was no significant difference in the overall trabecular bone density (BV/TV) between vehicle treated WT and β-arrestin 2−/− mice (FIG. 3A). […] These differences in trabecular bone architecture in sham treated animals reflect two potential contributing processes 1) the loss of β-arrestin mediated signaling and 2) the exaggeration of Gs signaling due to the loss of β-arrestin desensitization.

ERK1/2 = ERK1/2 MAP kinase activation (phosphorylation) in primary osteoblasts; format: cell-based, mice; conditions: 5 min, 100 nM PTH(1-34) or 1 μM PTH-βarr; for ERK1/2 activation: β-arrestin 2−/− POB; for ERK1/2 phosphorylation: WT POB
Method: FIG. 2 PTH-βarr stimulates β-arrestin mediated ERK1/2 activation. PTH-βarr stimulated ERK1/2 activation, was assessed in POBs isolated from β-arrestin 2−/− and WT C57BL/6 mice. POBs were treated with 100 nM PTH(1-34) (PTH) or 1 μM PTH-βarr for 5 min. […] The effect of PTH-barr stimulation on ERK1/2 activation in the WT obs was absent in the β-arrestin 2−/− obs. Values presented are the fold ERK1/2 phosphorylation over non-stimulated controls. Data represent the mean±SEM from four independent experiments. (**, P<0.01 compared with the non-stimulated WT POBs; ††, P<0.01 compared with the non-stimulated β-arrestin 2−/− POBs).
PTH(1-34) and PTH-βarr stimulated ERK1/2 MAP kinase activation was assessed in WT and β-arrestin 2−/− POB after treatment for 5 min with 100 nM PTH(1-34) or 1 μM PTH-βarr (FIG. 1b).

[2] = tested on: WT and β-arrestin 2−/− mice; experiment: 24 hour urine deoxypyridinoline (DPD), marker of bone resorption; format: in vivo; conditions: 4 weeks of treatment
Method: FIG. 5. PTH-βarr increases serum osteocalcin and has no effect on urine Deoxypyridinoline (DPD) excretion. (a) Serum osteocalcin, a biochemical marker of bone formation was measured in WT and β-arrestin 2−/− mice after 4 weeks of treatment with vehicle, PTH (1-34) (PTH) or PTH-βarr. […] There was no increase in serum osteocalcin in the arrestin 2−/− mice treated with PTH-βarr compared to placebo. […] (b) 24 hour urine DPD, a marker of bone degradation and bone resorption, was also measured in WT and β-arrestin 2−/− mice after 4 weeks of treatment with vehicle, PTH or PTH-βarr. […] Data represent the mean±SEM of at least 7 independent mouse measurements. (***, P<0.001; *, P<0.05; compared with vehicle treated WT mice; †††, P<0.001; ††, P<0.01 compared with vehicle treated β-arrestin 2−/− mice).
265. 24 hour urine deoxypyridinoline (DPD), a marker of bone degradation and bone resorption, was also measured. […] The increase in urine DPD excretion in the PTH(1-34) treated β-arrestin 2−/− mice compared to WT further supports the hypothesis that osteoblast-osteoclast coupling is meditated primarily through G protein dependent mechanisms that are disinhibited in the absence of β-arrestin 2.

[3] = tested on: WT and β-arrestin 2−/− mice; experiment: Bone mineral density after intermittent daily IP treatment; format: in vivo; conditions: once daily IP 40 mg/kg/day, 4 and 8 weeks
Method: FIG. 3. PTH-βarr increases lumbar spine bone mineral density. The effect of daily administration of vehicle, PTH (1-34)(PTH) or PTH-βarr on bone mineral density after 4 and 8 weeks was measured in the (a) lumbar spine of WT mice (b) lumbar spine of β-arrestin 2−/− (c) femur shaft of WT mice and (d) femoral shaft of β-arrestin 2−/− mice. […] Data represents the mean±SEM of at least 7 independent mouse measurements. (*, P<0.05; **, P<0.01 compared with vehicle treated controls)
β-arrestin 2−/− mice are fertile and present no gross phenotypic abnormalities. Further, no gross alterations in skeletal morphology or size were detected by x-ray analysis of β-arrestin 2−/− mice compared to 6 WT mice (data not shown). To examine the contribution of β-arrestin mediated signaling to regulation of the anabolic effects of PTH on bone, 9 week old WT and β-arrestin 2−/− mice were treated with intermittent (i.e. once daily) IP injection of PTH (1-34) (40 mg/kg/day), the β-arrestin biased agonist PTH-βarr (40 mg/kg/day). Its usually mg/kg/day) or vehicle. Bone mineral density (BMD) measurements were obtained at baseline and serially over 4 to 8 wks (FIG. 2). […] There were no significant differences in whole body BMD or femoral BMD between the WT or β-arrestin 2−/− mice. […] Consistent with earlier reports, these increases in BMD were absent in the PTH(1-34) treated β-arrestin 2−/− mice (FIGS. 2B and D). […] The decrease in BMD in β-arrestin 2−/− mice treated with PTH-βarr, are likely due to the inhibition of G protein mediated signaling as well as the absence of β-arrestin 2 mediated signaling.

[4] = WT mice, 8 weeks of daily treatment
[5] = β-arrestin 2−/− mice, 8 weeks of daily treatment
[6] = WT mice, 8 weeks of daily treatment, listed as PTH

Row | Substance | lumbar spine trabecular bone density (BV/TV) vs vehicle [1, 4] | trabecular number vs vehicle [1, 4] | trabecular thickness vs vehicle [1, 4] | ERK1/2 activation (ERK1/2) | 24 hour urine DPD vs vehicle ([2]; WT mice) | 24 hour urine DPD vs vehicle ([2]; β-arrestin 2−/− mice) | femoral BMD vs vehicle ([3]; WT mice) | femoral BMD vs vehicle ([3]; β-arrestin 2−/− mice) | also measured
1 | (D-Trp12, Tyr34)-PTH(7-34) [PTH-βarr] | increased; also recorded: significant increase | increased; also recorded: significant increases | increased; also recorded: significant increases | failed to activate ERK1/2 | no significant effect | no significant effect | did not significantly affect | decreases | trabecular number vs vehicle [1, 5]: absent; ERK1/2 activation (ERK1/2; listed as PTH-barr): absent; lumbar spine BMD vs vehicle ([3]; WT mice, 40 mg/kg/day): significant increases
2 | PTH(1-34) [reference compound] | significantly increased | significant increases | significant increases | responded to PTH(1-34) much as WT POB | significantly increased | significantly increased | marked increases | absent | lumbar spine trabecular bone density (BV/TV) vs vehicle [1, 6]: increased; trabecular number vs vehicle [1, 6]: increased; trabecular thickness vs vehicle [1, 6]: increased; percent increase in Tb bone density ([1]; WT mice): 38%; trabecular bone density (BV/TV) vs vehicle [1, 5]: net increase; trabecular thickness vs vehicle [1, 5]: significant increases; percent increase in Tb bone density ([1]; β-arrestin 2−/− mice): 17%; ERK1/2 phosphorylation (ERK1/2): approximately 3 fold over basal; ERK1/2 phosphorylation (ERK1/2; listed as PTH): robustly activated; 24 hour urine DPD vs vehicle ([2]; β-arrestin 2−/− mice, listed as PTH): increase; lumbar spine BMD vs vehicle ([3]; WT mice): marked increases; lumbar spine BMD vs vehicle ([3]; β-arrestin 2−/− mice): absent
